Data set [1] in a line: RP-HPLC stability of topical relaxin (3% methylcellulose gel). In kind it is physicochemical. Particulars: in contrast to shortened B-chain human relaxin. Here is the method:
The RP-HPLC method used for analyzing the liquid relaxin formulation, described in Example I, was modified for use with topical relaxin samples. Due to the high viscosity of the gel, samples were diluted ten-fold with water, vortexed for ^~ 5 minutes to homogenize the gel, and left undisturbed to let the bubbles rise. Analysis of these samples was performed by injecting 250 μl onto a C4-300 SynChropak (4.6×250 mm) column at room temperature. The initial equilibration buffer was 18% acetonitrile, 0.1% trifluoroacetic acid. The elution was carried out by running a 1%/min. increasing linear acetonitrile gradient to a final concentration of 45% acetonitrile after 30 minutes. The flow rate was held constant at 1.0 ml/min. and the absorbance was monitored at 214 nm. The "slowdown" step (the time it takes to draw the viscous gel into the metering device) was increased from […].
Three significant stability experiments were performed on the topical relaxin formulation. The first was to measure the stability of these preparations after being left out at room temperature for five weeks. The sample remained in the original syringe, subject to the fluctuations of temperature and light.
The second study was a measure of the stability of topical relaxin under well controlled conditions at 5° C. and 25° C. […]

Another data set deals with rabbit cervix. Briefly: Efficacy on ripening of the rabbit cervix, intravaginal gel. In kind it is in vivo. As to conditions: initial study, 300 μg/ml topical gel, 0.5 ml intravaginally, eighteen hours after application. Here is the method: Mature pregnant female New Zealand rabbits weighing 4.5 to 6.0 kg were studied. […] Both hormones were applied intravaginally by means of a syringe and a catheter in a volume of 0.5 ml. Control animals received the vehicle alone. After 16-18 hours, the animals were sacrificed using a lethal dose of pentobarbital. […] Paraffin sections were cut and stained with hematoxylin/eosin and alcian blue PAS. Sections were evaluated for general morphology, and specifically for the degree of separation of muscular tissue and collagen fibrils in the submucosa and for the presence of characteristic PAS positive giant cells, which are multinucleate cells of macrophage origin that normally infiltrate the cervix during labor. The measurement of giant cells is accomplished using the procedure described by MacLennan et al., Am J. Obstet. Gynecol., 152: 691-696 (1985).

The subject of data set [2] is cervix. Particulars: 3000 units in the cervical os, Perezgrovas and Anderson (1982); cited from earlier work.
Data set [3] has as its system cervix. As to conditions: 2-mg dose in methylcellulose gel, MacLennan et al. (1981); cited from earlier work.

Results on one substance are retold here after patent publication US5945402A (Genetech, Inc., priority 1995, dated 1999).

A value given as a limit tells only on which side of the number the result lay.

Take porcine relaxin: in data set [1], the “degradation of 600 μg/ml porcine relaxin in 3% Methocel gel by HPLC” value is given as “degraded very little”. For the same substance, the “cervical ripening, morphology of the pregnant cervix” value in the data set with rabbit cervix was “significant dilation and cervical ripening were observed”. For the same substance, the “time to increased dilatation of the cervix after infusion” value in the data set on cervix [2] was at most 8 h. Moreover, the “effect on cervical score” value in the data set with cervix [3] is listed as “improve the cervical score”.
